Assay results from patent US7205306B2, “Substituted pyrazinones, pyridines and pyrimidines as corticotropin releasing factor ligands” (Bristol-Myers Squibb Pharma Company, priority 2001, dated 2007).
“And” between values parts separate entries of the source, which are not always exact repeats. Equal values may be shown once. Where a name gives a salt, the structure may show the parent alone.

Compound	melting point
CCC(CC)Nc1nc(C)nc(N2CCc3cc(OC)cc(Cl)c32)c1C#N [Example 59, 4-(7-chloro-5-methoxy-2,3-dihydro-1H-indol-1-yl)-5-cyano-6-(1-ethylpropylamino)-2-methylpyrimidine]	189 to 190 °C and 192 to 194 °C
CC[C@@H](C1CC1)n1cc(Cl)nc(N2CCc3cc(OC)c(F)c(Cl)c32)c1=O [Example 519, 5-Chloro-3-(7-chloro-6-fluoro-5-methoxy-2,3-dihydro-1H-indol-1-yl)-1-[(1S)-1-cyclopropylpropyl]-2(1H)-pyrazinone]	127 to 129 °C
CCC(COC)Nc1nc(C)nc(N2CCc3cc(OC)cc(Cl)c32)c1C=O (centres unmarked) [Example 76, 4-(7-chloro-5-methoxy-2,3-dihydro-1H-indol-1-yl)-5-formyl-6-[1-(1-methoxymethyl)propylamino]-2-methylpyrimidine]	150 to 153 °C
CC[C@H](COC)n1cc(Br)nc(N2CCc3cc(OC)cc(C)c32)c1=O (as salt: hydrochloride) [Example 526, 5-Bromo-3-(5-methoxy-7-methyl-2,3-dihydro-1H-indol-1-yl)-1-[(1R)-1-(methoxymethyl)propyl]-2(1H)-pyrazinone]	116 to 118 °C
COc1cc(C)c2c(c1)CCN2c1nc(Cl)cn(CCSC)c1=O (as salt: hydrochloride) [Example 534, 5-Chloro-3-(5-methoxy-7-methyl-2,3-dihydro-1H-indol-1-yl)-1-[2-(methylthio)ethyl]-2(1H)-pyrazinone]	111 to 113 °C
CCC(CC)Nc1nc(C)nc(N2CCc3cc(OC)cc(Cl)c32)c1C=O [Example 60, 4-(7-chloro-5-methoxy-2,3-dihydro-1H-indol-1-yl)-6-(1-ethylpropylamino)-5-formyl-2-methylpyrimidine]	178 to 179 °C
CCC(CC)Nc1nc(C)nc(N2CCc3cc(Cl)cc(Cl)c32)c1CO [Example 7, 4-(5,7-dichloro-2,3-dihydro-1H-indol-1-yl)-6-(1-ethylpropylamino)-5-hydroxymethyl-2-methylpyrimidine]	150 to 152 °C
CCC(CC)n1cc(Br)nc(N2CCc3cc(Cl)cc(Cl)c32)c1=O [Example 507, 5-Bromo-3-(5,7-dichloro-2,3-dihydro-1H-indol-1-yl)-1-(1-ethylpropyl)-2(1H)-pyrazinone]	158 to 160 °C
CCC(CC)n1cc(Br)nc(N2CCc3cc(OC)cc(C)c32)c1=O (as salt: hydrochloride) [Example 506, 5-Bromo-1-(1-ethylpropyl)-3-(5-methoxy-7-methyl-2,3-dihydro-1H-indol-1-yl)-2(1H)-pyrazinone]	152 to 154 °C
CC[C@@H](C1CC1)n1cc(Cl)nc(N2CCc3cc(Cl)cc(Cl)c32)c1=O [Example 517, 5-Chloro-1-[(1S)-1-cyclopropylpropyl]-3-(5,7-dichloro-2,3-dihydro-1H-indol-1-yl)-2(1H)-pyrazinone]	157 to 159 °C
CCC(CC)Nc1nc(C)nc(N2CCc3cc(Cl)cc(Cl)c32)c1Br [Example 3, 5-bromo-4-(5,7-dichloro-2,3-dihydro-1H-indol-1-yl)-6-(1-ethylpropylamino)-2-methylpyrimidine]	136 to 138 °C
CCC(CC)n1cc(C)nc(N2CCc3cc(OC)cc(C)c32)c1=O (as salt: hydrochloride) [Example 481, 3-(5-Methoxy-7-methyl-2,3-dihydro-1H-indol-1-yl)-1-(1-ethylpropyl)-5-methyl-2(1H)-pyrazinone]	138 to 140 °C
CCc1cn(C(CC)CC)c(=O)c(N2CCc3cc(Cl)cc(Cl)c32)n1 [Example 539, 3-(5,7-Dichloro-2,3-dihydro-1H-indol-1-yl)-5-ethyl-1-(1-ethylpropyl)-2(1H)-pyrazinone]	136 to 137 °C
CCC(CC)Nc1cc(N2CCc3cc(Cl)cc(Cl)c32)nc(C)n1 [Example 1, 4-(5,7-dichloro-2,3-dihydro-1H-indol-1-yl)-6-(1-ethylpropylamino)-2-methylpyrimidine]	116 to 117 °C

Continued, values first:

melting point	Compound
93 to 94 °C	CC[C@@H](COC)n1cc(Cl)nc(N2CCCc3cc(OC)cc(Br)c32)c1=O [Example 555, 3-(8-Bromo-6-methoxy-1,2,3,4-tetrahydroquinoline)-5-chloro-1-[(1S)-1-(methoxymethyl)propyl]-2(1H)-pyrazinone]
154 to 156 °C	CC[C@H](C1CC1)n1cc(Cl)nc(N2CCc3cc(Br)cc(Cl)c32)c1=O [Example 542, 3-(5-Bromo-7-chloro-2,3-dihydro-1H-indol-1-yl)-5-chloro-1-[(1R)-1-cyclopropylpropyl]-2(1H)-pyrazinone]
150 °C	CCC(C)n1cc(Cl)nc(N2CCc3cc(Br)cc(Cl)c32)c1=O (centres unmarked) [Example 538, 3-(5-Bromo-7-chloro-2,3-dihydro-1H-indol-1-yl)-5-chloro-1-methylpropyl-2(1H)-pyrazinone]
95 to 97 °C	CCC(CCOC)n1cc(Cl)nc(N2CCc3cc(Cl)cc(Cl)c32)c1=O (centres unmarked) [Example 410, 5-Chloro-3-(5,7-dichloro-2,3-dihydro-1H-indol-1-yl)-1-(1-ethyl-3-methoxypropyl)-2(1H)-pyrazinone]
138 to 140 °C	CC[C@H](C1CC1)n1cc(Cl)nc(N2CCc3cc(OC)cc(Br)c32)c1=O (as salt: hydrochloride) [Example 509, 3-(7-Bromo-5-methoxy-2,3-dihydro-1H-indol-1-yl)-5-chloro-1-[(1R)-1-cyclopropylpropyl]-2(1H)-pyrazinone]
168 to 170 °C	CCC(CC)n1cc(Cl)nc(N2CCc3cc(Cl)cc(Cl)c32)c1=O [Example 401, 5-Chloro-3-(5,7-dichloro-2,3-dihydro-1H-indol-1-yl)-1-(1-ethylpropyl)-2(1H)-pyrazinone]
119 to 120 °C	COC[C@@H](C)n1cc(Cl)nc(N2CCc3cc(Br)cc(Br)c32)c1=O [Example 521, 5-Chloro-3-(5,7-dibromo-2,3-dihydro-1H-indol-1-yl)-1-[(1R)-2-methoxy-1-methylethyl]-2(1H)-pyrazinone]
164 to 165 °C	CCC(CC)n1cc(Cl)nc(N2CCc3cc(OC)cc(C)c32)c1=O (as salt: hydrochloride) [Example 431, 5-Chloro-1-(1-ethylpropyl)-3-(5-methoxy-7-methyl-2,3-dihydro-1H-indol-1-yl)-2(1H)-pyrazinone]
118 °C	CC[C@H](COC)n1cc(Br)nc(N2CCc3cc(Br)cc(Cl)c32)c1=O [Example 547, 5-Bromo-3-(5-bromo-7-chloro-2,3-dihydro-1H-indol-1-yl)-1-[(1R)-1-(methoxymethyl)propyl]-2(1H)-pyrazinone]
150 to 152 °C	CC[C@H](COC)n1cc(Br)nc(N2CCc3cc(Cl)cc(Cl)c32)c1=O [Example 527, 5-Bromo-3-(5,7-dichloro-2,3-dihydro-1H-indol-1-yl)-1-[(1R)-1-(methoxymethyl)propyl]-2(1H)-pyrazinone]
133 to 135 °C	CCC(CC)n1cc(Br)nc(N2CCc3cc(OC)cc(Br)c32)c1=O (as salt: hydrochloride) [Example 505, 5-Bromo-3-(7-bromo-5-methoxy-2,3-dihydro-1H-indol-1-yl)-1-(1-ethylpropyl)-2(1H)-pyrazinone]
156 to 157 °C	CCC(CC)n1cc(Cl)nc(N2CCc3cc(Br)cc(Cl)c32)c1=O [Example 540, 3-(5-Bromo-7-chloro-2,3-dihydro-1H-indol-1-yl)-5-chloro-1-(1-ethylpropyl)-2(1H)-pyrazinone]
138 to 140 °C	CC[C@@H](C1CC1)n1cc(Cl)nc(N2CCc3cc(OC)cc(Br)c32)c1=O (as salt: hydrochloride) [Example 515, 3-(7-Bromo-5-methoxy-2,3-dihydro-1H-indol-1-yl)-5-chloro-1-[(1S)-1-cyclopropylpropyl]-2(1H)-pyrazinone]
143 to 146 °C	CC[C@H](COC)n1cc(Cl)nc(N2CCc3cc(Cl)cc(Cl)c32)c1=O [Example 524, 5-Chloro-3-(5,7-dichloro-2,3-dihydro-1H-indol-1-yl)-1-[(1R)-1-(methoxymethyl)propyl]-2(1H)-pyrazinone]
126 to 127 °C	CC[C@@H](C1CC1)n1cc(Cl)nc(N2CCc3cc(Br)cc(Cl)c32)c1=O [Example 543, 3-(5-Bromo-7-chloro-2,3-dihydro-1H-indol-1-yl)-5-chloro-1-[(1S)-1-cyclopropylpropyl]-2(1H)-pyrazinone]
131 to 133 °C	CCC(COC)n1cc(Cl)nc(N2CCc3cc(OC)cc(Cl)c32)c1=O (centres unmarked) [Example 413, 5-Chloro-3-(7-chloro-5-methoxy-2,3-dihydro-1H-indol-1-yl)-1-[1-(methoxymethyl)propyl]-2(1H)-pyrazinone]
140 to 142 °C	CCC(COC)n1cc(Cl)nc(N2CCc3cc(OC)c(F)c(Cl)c32)c1=O (centres unmarked) [Example 522, 5-Chloro-3-(7-chloro-6-fluoro-5-methoxy-2,3-dihydro-1H-indol-1-yl)-1-[1-(methoxymethyl)propyl]-2(1H)-pyrazinone]
146 °C	COC[C@@H](C)n1cc(Cl)nc(N2CCCc3cc(OC)cc(Br)c32)c1=O [Example 553, 3-(8-Bromo-6-methoxy-1,2,3,4-tetrahydroquinoline)-5-chloro-1-[(1R)-2-methoxy-1-methylethyl]-2(1H)-pyrazinone]
93 to 95 °C	COC[C@@H](C)n1cc(Cl)nc(N2CCc3cc(Cl)cc(Cl)c32)c1=O [Example 520, 5-Chloro-3-(5,7-dichloro-2,3-dihydro-1H-indol-1-yl)-1-[(1R)-2-methoxy-1-methylethyl]-2(1H)-pyrazinone]
160 to 162 °C	CC[C@H](C1CC1)n1cc(Cl)nc(N2CCc3cc(OC)cc(C)c32)c1=O (as salt: hydrochloride) [Example 510, 5-Chloro-1-[(1R)-1-cyclopropylpropyl]-3-(5-methoxy-7-methyl-2,3-dihydro-1H-indol-1-yl)-2(1H)-pyrazinone]
141 to 142 °C	CC[C@H](COC)n1cc(Cl)nc(N2CCc3cc(OC)cc(C#N)c32)c1=O [Example 546, 1-[6-Chloro-4-[(1R)-1-(methoxymethyl)propyl]-3,4-dihydro-3-oxopyrazinyl]-5-methoxy-2,3-dihydro-1H-indole-7-carbonitrile]
